In patent EP4745134A1 (Jiangsu Yahong Meditech Co., Ltd., priority 2023, dated 2025):

These compounds were tested against PRMT5-MTA (Homo sapiens, UniProt O14744) (assay: Enzymatic inhibitory activity against PRMT5-MTA (AlphaScreen)). Settings: read-out: IC50.
Assay type: biochemical
Procedure: The AlphaScreen method was used to detect the enzymatic inhibitory activity of the compounds against PRMT5-MTA. 1 x Methyltransferase assay buffer IV (signalchem) was prepared as a solution for diluting each component for the enzymatic reaction. PRMT5/[…] protein of a final concentration of 1 nM, […] (sigma) of a final concentration of 1 uM and S-(5'-adenosine)-L-methionine chloride dihydrochloride (sigma) of a final concentration of 2.5 uM were mixed, then incubated for 30 minutes at room temperature, and transferred to an OptiPlate-384 well plate (PerkinElmer) at a volume of 6 uL per well, for which no PRMT5/[…] protein was added to the control wells. The test compound was 3-fold serially diluted into 10 concentrations, starting from a concentration of 1000 nM, and the series of diluted compounds were added to all wells except the control wells in the well plate using Tecan D300e. The well plate was subjected to centrifugation for 1 minute at 1000 rpm in a centrifuge, and then incubated for 15 minutes at 23°C. Histone H4 substrate of a final concentration of 5 nM was added to the well plate at 4 uL per well, centrifuged for 1 minute at 1000 rpm in a centrifuge, then placed in an incubator at 23°C and reacted for 45 minutes. Anti-histone H4 (symmetrical dimethyl R3) antibody (Abcam) was incubated with 50 ug/mL of AlphaScreen Protein A Acceptor beads (PerkinElmer) for 10 minutes at room temperature beforehand, and then added to the well plate at a volume of 10 uL per well. The mixture was reacted for 1 hour at room temperature. 50 Ug/mL of AlphaScreen Streptavidin Donor beads (PerkinElmer) was added at 10 uL per well, and reacted for 1 hour at room temperature. The signal values were detected for the well plate through the Alpha method using an Envision multifunctional microplate-reader, and the IC50 values for inhibition of the compounds on PRMT5/MET50 enzyme activity were calculated in Xlfit 5.0 software. Table 1. IC50 values for inhibition of the compounds on PRMT5+MTA enzyme activity

Sequence of PRMT5-MTA (O14744 whole entry): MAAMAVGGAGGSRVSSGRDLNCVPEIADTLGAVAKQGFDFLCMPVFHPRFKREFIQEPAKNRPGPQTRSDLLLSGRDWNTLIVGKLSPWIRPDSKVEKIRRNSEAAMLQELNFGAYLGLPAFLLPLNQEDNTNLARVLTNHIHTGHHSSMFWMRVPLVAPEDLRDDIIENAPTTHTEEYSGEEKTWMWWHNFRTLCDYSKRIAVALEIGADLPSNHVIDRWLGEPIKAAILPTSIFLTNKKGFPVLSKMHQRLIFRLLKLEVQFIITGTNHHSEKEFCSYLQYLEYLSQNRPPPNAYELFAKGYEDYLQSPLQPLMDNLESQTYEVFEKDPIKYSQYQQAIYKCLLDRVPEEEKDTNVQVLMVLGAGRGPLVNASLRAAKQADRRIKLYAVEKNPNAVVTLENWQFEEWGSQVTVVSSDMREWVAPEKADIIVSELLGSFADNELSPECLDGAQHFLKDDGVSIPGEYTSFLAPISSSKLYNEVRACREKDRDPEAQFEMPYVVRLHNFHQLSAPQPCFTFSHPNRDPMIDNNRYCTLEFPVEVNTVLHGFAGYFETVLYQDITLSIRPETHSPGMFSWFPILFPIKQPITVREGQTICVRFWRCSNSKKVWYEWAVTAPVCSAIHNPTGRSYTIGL
Sequence of PRMT5-MTA (Q9BQA1 whole entry partner): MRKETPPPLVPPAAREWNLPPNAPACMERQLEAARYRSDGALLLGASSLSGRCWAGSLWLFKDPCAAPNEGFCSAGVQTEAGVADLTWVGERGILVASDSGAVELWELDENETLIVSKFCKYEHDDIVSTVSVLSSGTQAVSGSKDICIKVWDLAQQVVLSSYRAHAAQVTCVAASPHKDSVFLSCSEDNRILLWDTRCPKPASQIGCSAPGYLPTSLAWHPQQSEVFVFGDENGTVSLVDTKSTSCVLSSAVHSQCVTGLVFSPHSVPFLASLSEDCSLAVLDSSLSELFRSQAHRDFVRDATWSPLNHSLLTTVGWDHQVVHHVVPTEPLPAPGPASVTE

Structure (SMILES) | IC50 [nM]
Cc1cc2cc(C(=O)N(Cc3ccc(C(F)(F)F)cn3)N(C)c3ncc(I)cn3)ccc2nc1N [Example 267, 2-amino-N'-(5-iodopyrimidin-2-yl)-N',3-dimethyl-N-((5-(trifluoromethyl)pyridin-2-yl)methyl)quinoline-6-carbohydrazide] | 1.8
Cc1ncsc1-c1ccc(CN(C(=O)c2cc3c(cc2F)nc(N)c2cnn(C)c23)N(c2ncccn2)C2CC2)nc1 [Example 253, 4-amino-N'-cyclopropyl-7-fluoro-1-methyl-N-((5-(4-methylthiazol-5-yl)pyridin-2-yl)methyl)-N'-(pyrimidin-2-yl)-1H-pyraz olo[4,3-c]quinoline-8-carbohydrazide] | 6.1
Cc1cc2cc(C(=O)N(Cc3ccc(C(F)(F)F)cn3)n3cnc4cccnc43)ccc2nc1N [Example 27, 2-amino-N-(3H-imidazo[4,5-b]pyridin-3-yl)-3-methyl-N-((5-(trifluoromethyl)pyridin-2-yl)methyl)quinoline-6-carboxamide] | 4
Cc1cc2cc(C(=O)N(Cc3ccc(-c4ccc(N(C)C5CC5)nc4)cn3)N(C)c3ncccn3)ccc2nc1N [Compound 247, 2-amino-N-((6'-(cyclopropyl(methyl)amino)-[3,3'-bipyridine]-6-yl)methyl)-N',3-di methyl-N'-(pyrimidin-2-yl)quinoline-6-carbohydrazide] | 7.7
Cc1cc2cc(C(=O)N(Cc3ccc(C(F)(F)F)cn3)N(C)c3nccc4ccccc34)ccc2nc1N [Example 45, 2-amino-N'-(isoquinol-1-yl)-N',3-dimethyl-N-((5-(trifluoromethyl)pyridin-2-yl)methyl)quinoline-6-carbohydrazide] | 3.1
Cc1cc2cc(C(=O)N(Cc3ccc(-c4nn[nH]n4)cn3)N(C)c3ncccn3)ccc2nc1N [Example 245, N-((5-(2H-tetrazol-5-yl)pyridin-2-yl)methyl)-2-amino-N',3-dimethyl-N'-(pyrimidin-2-y 1)quinoline-6-carbohydrazide] | 9.5
CN(c1ncccn1)N(Cc1ccc(C(F)(F)F)cn1)C(=O)c1ccc2nc(N)c3c(c2c1)COC3 [Example 12, 4-amino-N'-methyl-N'-(pyrimidin-2-yl)-N-((5-(trifluoromethyl)pyridin-2-yl)methyl)-1,3-dihydrofuro[3,4-c]quinoline-8-car bohydrazide] | 7.8
Cc1cc2cc(C(=O)N(Cc3ccc(C(F)(F)F)cn3)n3c(=O)n(C)c4cccnc43)ccc2nc1N [Example 118, 2-amino-3-methyl-N-(1-methyl-2-oxo-1,2-dihydro-3H-imidazo[4,5-b]pyridin-3-yl)-N-((5-(trifluoromethyl)pyridin-2-yl)methyl)quinoline-6-carboxamide] | 2.3
Cc1cc2nc(N)c3cnn(C)c3c2cc1C(=O)N(Cc1ccc(-c2scnc2C)cn1)N(c1ncccn1)C1CC1 [Example 251, 4-amino-N'-cyclopropyl-1,7-dimethyl-N-((5-(4-methylthiazol-5-yl)pyridin-2-yl)methyl)-N'-(pyrimidin-2-yl)-1H-pyrazolo[4 ,3-c]quinoline-8-carbohydrazide] | 4.1
Cc1cc2nc(N)c3cnn(C)c3c2cc1C(=O)N1CC(C)CN1c1ncccc1OC(F)(F)F (centres unmarked) [Example 334, (4-amino-1,7-dimethyl-1H-pyrazolo[4,3-c]quinolin-8-yl)(4-methyl-2-(3-(trifluoromethoxy)pyridin-2-yl)pyrazolidin-1-yl)m ethanone] | 9.2
Cc1ncsc1-c1ccc(CN(C(=O)c2ccc3nc(N)c(CF)cc3c2)N(c2ncccn2)C2CC2)nc1 [Compound 324, 2-amino-N'-cyclopropyl-3-(fluoromethyl) -N-((5-(4-methylthiazol-5-yl)pyridin-2-yl)methyl)-N'-(pyrimidin-2-yl)quinoline-6-carbohydrazide] | 4.4
Cc1cc2cc(C(=O)N(Cc3ncc(Br)cn3)N(C)c3ncccc3F)ccc2nc1N [Example 89, 2-amino-N-((5-bromopyrimidin-2-yl)methyl)-N'-(3-fluoropyridin-2-yl)-N',3-dimet hylquinoline-6-carbohydrazide] | 2
Cc1cc2cc(C(=O)N(Cc3ccc(C(F)(F)F)cn3)N(C)c3ncc(C(F)(F)F)cn3)ccc2nc1N [Example 77, 2-amino-N',3-dimethyl-N-((5-(trifluoromethyl)pyridin-2-yl)methyl)-N'-(5-(trifluor omethyl)pyrimidin-2-yl)quinoline-6-carbohydrazide] | 1.1
Cc1cc2nc(N)c3cnn(C)c3c2cc1C(=O)N(C)N1CCCc2cccnc21 [Example 268, 4-amino-N-(3,4-dihydro-1,8-naphthyridin-1(2H)-yl)-N,1,7-trimethyl-1H-pyrazolo[4,3-c]quinoline-8-carboxamide] | 3.5

Other lines, results leading:

IC50 [nM] | Structure (SMILES)
2.9 | Cc1cc2nc(N)c3cnn(C)c3c2cc1C(=O)N1CCCN1c1ccncc1 [Example 336, (4-amino-1,7-dimethyl-1H-pyrazolo[4,3-c]quinolin-8-yl)(2-(pyridin-4-yl)pyrazolidin-1-yl)methanone]
5 | COc1cc2nc(N)c3cnn(C)c3c2cc1C(=O)N1CCCN1c1ncccc1F [Example 498, (4-amino-7-methoxy-1-methyl-1H-pyraz olo[4,3-c]quinolin-8-yl)(2-(3-fluoropyridin-2-yl)pyrazolidin-1-yl)methanone]
3.4 | Cc1cc2nc(N)c3cnn(C)c3c2cc1C(=O)N1CC(C)CN1c1ncccc1C (centres unmarked) [Example 380, (4-amino-1,7-dimethyl-1H-pyrazolo[4,3-c]quinolin-8-yl)(4-methyl-2-(3-methylpyridin-2-yl)pyrazolidin-1-yl)methanone]
5.8 | Cc1cc2nc(N)c3cnccc3c2cc1C(=O)N1CC(C)CN1c1ncccc1F (centres unmarked) [Example 506, (5-amino-8-methylbenzo[C] [2,7]naphthyridin-9-yl)(2-(3-fluoropyridin-2-yl)-4-methylpyrazolidin-1-yl)methanone]
41 | CC(C)c1cc2nc(N)c3cnn(C)c3c2cc1C(=O)N1CCCN1c1ccc(C(F)(F)F)cn1 [Example 500, (4-amino-7-isopropyl-1-methyl-1H-pyraz olo[4,3-c]quinolin-8-yl)(2-(5-(trifluoromethyl)pyridin-2-yl)pyrazolidin-1-yl)metha none]
5.5 | Cc1cc2nc(N)c3cnn(C)c3c2cc1C(=O)N1CC(C)CN1c1ncc(C#N)cc1F (centres unmarked) [Example 371, 6-(2-(4-amino-1,7-dimethyl-1H-pyrazolo [4,3-c]quinoline-8-formyl)-4-methylpyrazolidin-1-yl)-5-fluoronicotinonitrile]
4.6 | Cn1ncc2c(N)nc3ccc(C(=O)N4CCCN4c4ccc(C(F)(F)F)cn4)cc3c21 [Example 339, (4-amino-1-methyl-1H-pyrazolo[4,3-c]quinolin-8-yl)(2-(5-(trifluoromethyl)pyridin-2-yl)pyrazolidin-1-yl)methanone]
3.1 | Cc1cc2nc(N)c3cnn(C)c3c2cc1C(=O)N1CC(c2ccccc2)CN1c1ncccc1F (centres unmarked) [Example 409, (4-amino-1,7-dimethyl-1H-pyrazolo[4,3-c]quinolin-8-yl)(2-(3-fluoropyridin-2-yl)-4-phenylpyrazolidin-1-yl)methanone]

Each compound was assayed on HCT116 MTAP KO cells (assay: Inhibitory activity against cell proliferation (CellTiter Glo, 6 days), HCT116 MTAP KO). Settings: Homo sapiens, HCT-116, 144 h, HCT116 MTAP KO cells, 6 days, CellTiter Glo; read-out: HCT116 MTAP KO IC50.
Assay type: cell-based
Procedure: HCT116-WT (ATCC, CCL-247) and HCT116 MTAP KO (Nanjing Cobioer, CBP75002) cells were seeded into white low-transparency sterile 96-well cell culture plates at a density of 250 cells per well respectively, and the culture medium was McCoy's 5A Medium+10% FBS. The plates were placed under the condition of 37°C and 5% CO2 to be cultured overnight. The cells were treated with 4-fold serially diluted compounds of 8 concentration points starting at an initial concentration of 10000 nM, and the last two columns were used as control wells to which only DMSO was added. The drug-treated cells were further cultured for 6 days. On day 7, CellTiter Glo® reagent was added at 50 uL per well, and after reaction under shaking for 10 minutes at room temperature, the chemiluminescence signals were detected for the well plates through the chemiluminescence detection method using a BIOTEK H1 multifunctional microplate-reader. The IC50 values for inhibition of the compounds on cell viability were calculated in X1fit 5.0 software. Table 2. IC50 values for inhibition of the compounds on HCT116 MTAP KO/WT cell growth

IC50 [nM] | Structure (SMILES)
> 10000 | CN(c1ncccn1)N(Cc1ccc(C(F)(F)F)cn1)C(=O)c1ccc2c(c1)nc(N)n2C [Example 36, 2-amino-N',1-dimethyl-N'-(pyrimidin-2-yl)-N-((5-(trifluoromethyl)pyridin-2-yl)methyl)-1H-benzo[d]imidazole-5-carbohydrazide]
